Data on 16 compounds can be found in US11149037B2, “Pyrazole MAGL inhibitors” (H. Lundbeck A/S, priority 2017, dated 2021).

The structures appear in SMILES notation.

The IC50 is the point on the concentration scale where inhibition reaches its midpoint. A lower IC50 goes with greater potency in that assay.

Assay [1] deals with FAAH (Homo sapiens (Human), UniProt O00519). The experiment in a line: In vitro competitive activity-based protein profiling, human proteomes (prefrontal cortex or PC3 cell membrane fractions). In kind it is biochemical. As to conditions: human proteome; for inhibition at 1 µM: read-out: FAAH % inh. 1 μM (human). In outline:
(§1)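 Activity of MAGL and FAAH was quantified from fluorescent gel band intensities. Beforehand, inhibitors at several concentrations competed against subsequent probe labelling (FP-Rh, JW912 or HT-01) in species-matched proteomes, each step 30 min at 37° C.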

For assay [2], the target named is MAGL (Homo sapiens (Human), UniProt Q99685). The assay is described as above. In kind it is biochemical. As to conditions: human proteome; for inhibition at 1 µM: read-out: MAGL % inh. 1 μM (human). In short, it runs like this:
as §1

Assay [3] deals with T1, FAAH (Mus musculus (Mouse), UniProt O08914). As to the kind of experiment: In vitro competitive activity-based protein profiling, mouse proteomes (brain membrane fraction or cell lysates). As to conditions: mouse proteome, read-out: FAAH % inh. 1 μM (mouse). The assay is classed as biochemical. In outline: as §1
T1 sequence (O08914 whole entry): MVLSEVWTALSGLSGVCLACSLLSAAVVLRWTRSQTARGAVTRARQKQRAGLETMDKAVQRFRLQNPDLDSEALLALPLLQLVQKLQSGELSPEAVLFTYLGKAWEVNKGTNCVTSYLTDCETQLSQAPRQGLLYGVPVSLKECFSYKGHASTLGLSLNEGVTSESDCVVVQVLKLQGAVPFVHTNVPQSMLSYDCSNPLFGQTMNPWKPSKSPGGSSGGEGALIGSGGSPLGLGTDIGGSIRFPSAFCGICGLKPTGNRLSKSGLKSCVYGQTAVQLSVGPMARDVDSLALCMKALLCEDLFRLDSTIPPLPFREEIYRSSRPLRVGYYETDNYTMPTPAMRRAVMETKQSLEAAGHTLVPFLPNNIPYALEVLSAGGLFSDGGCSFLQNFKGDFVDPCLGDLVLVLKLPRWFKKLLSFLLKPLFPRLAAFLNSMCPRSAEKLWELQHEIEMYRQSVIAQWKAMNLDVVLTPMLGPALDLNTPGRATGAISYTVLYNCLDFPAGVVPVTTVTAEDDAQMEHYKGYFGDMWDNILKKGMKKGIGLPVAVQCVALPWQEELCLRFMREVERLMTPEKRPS
The target of assay [4] is T2, MAGL (Mus musculus (Mouse), UniProt O35678). The description is as above. In kind it is biochemical. As to conditions: mouse proteome, read-out: MAGL % inh. 1 μM (mouse). In short, it runs like this:
as §1

Assay [5] addresses T1, FAAH. As to the kind of experiment: Mouse brain proteomes from inhibitor treated mice (oral gavage, sacrificed 4 h after administration). In kind it is in vivo. The settings on record: 5 mg/kg oral gavage. How it is done: (§2) Preparation of Mouse Brain Proteomes from Inhibitor Treated Mice.
(§3) Inhibitors were administered to wild-type C57B1/6J by oral gavage in a vehicle of polyethylene glycol. Each animal was sacrificed 4 h following administration and brain proteomes were prepared and analyzed according to previously established methods (See Niphakis, M. J., et al. (2011) ACS Chem. Neurosci. and Long, J. Z., et al. Nat. Chem. Biol. 5:37-44).

For assay [6], the target named is T2, MAGL. The description is as above. The settings on record: 5 mg/kg oral gavage. In kind it is in vivo. Here is the method: as §2, §3

Sequence of FAAH (Homo sapiens (Human), UniProt O00519) (O00519 whole entry): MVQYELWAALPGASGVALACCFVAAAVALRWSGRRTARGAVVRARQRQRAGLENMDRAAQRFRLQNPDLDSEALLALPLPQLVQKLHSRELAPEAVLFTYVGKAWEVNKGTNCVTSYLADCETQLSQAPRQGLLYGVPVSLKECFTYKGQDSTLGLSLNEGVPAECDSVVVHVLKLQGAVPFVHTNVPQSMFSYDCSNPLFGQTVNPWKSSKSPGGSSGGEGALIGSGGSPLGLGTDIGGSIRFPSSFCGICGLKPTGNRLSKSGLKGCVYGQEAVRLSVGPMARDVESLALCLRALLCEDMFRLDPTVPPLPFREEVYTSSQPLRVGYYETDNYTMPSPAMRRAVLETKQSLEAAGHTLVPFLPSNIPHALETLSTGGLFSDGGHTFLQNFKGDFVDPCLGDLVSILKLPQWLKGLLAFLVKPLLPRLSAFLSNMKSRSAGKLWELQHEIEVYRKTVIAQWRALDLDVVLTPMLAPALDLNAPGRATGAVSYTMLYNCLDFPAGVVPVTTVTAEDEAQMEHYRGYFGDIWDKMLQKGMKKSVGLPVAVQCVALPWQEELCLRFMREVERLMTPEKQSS
Sequence of MAGL (Homo sapiens (Human), UniProt Q99685) (Q99685 whole entry): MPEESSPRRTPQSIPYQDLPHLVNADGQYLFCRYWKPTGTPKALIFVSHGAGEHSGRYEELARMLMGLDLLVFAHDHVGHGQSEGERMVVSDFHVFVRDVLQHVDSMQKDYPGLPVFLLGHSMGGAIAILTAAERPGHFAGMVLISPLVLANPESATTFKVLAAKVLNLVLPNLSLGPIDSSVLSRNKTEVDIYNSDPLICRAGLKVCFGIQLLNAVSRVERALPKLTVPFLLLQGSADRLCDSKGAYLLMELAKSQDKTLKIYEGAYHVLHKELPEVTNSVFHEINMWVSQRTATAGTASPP
T2 sequence (O35678 whole entry): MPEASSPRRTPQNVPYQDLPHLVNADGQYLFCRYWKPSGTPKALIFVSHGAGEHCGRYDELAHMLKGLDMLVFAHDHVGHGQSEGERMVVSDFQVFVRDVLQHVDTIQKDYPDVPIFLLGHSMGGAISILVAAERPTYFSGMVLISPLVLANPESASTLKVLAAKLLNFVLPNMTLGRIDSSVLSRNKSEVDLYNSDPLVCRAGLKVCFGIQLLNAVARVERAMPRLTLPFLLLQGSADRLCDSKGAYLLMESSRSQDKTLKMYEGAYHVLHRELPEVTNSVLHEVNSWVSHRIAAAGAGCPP

With `CC(=O)Nc1ccn(C(=O)N2CCN(Cc3ccc(Cl)cc3OC3(C(=O)O)CC3)CC2)n1` [Example 4, 1-(2-((4-(3-acetamido-1H-pyrazole-1-carbonyl)piperazin-1-yl)methyl)-5-chlorophenoxy)cyclopropane-1-carboxylic acid], the inhibition at 1 µM is 0 to 25% in assay [1], > 75% in assay [2], 0 to 25% in assay [3] and > 75% in assay [4]. For the same compound, in assay [5], the “FAAH % inh. 5 mg/kg (mouse)” value was “D (% inhibition is greater than or equal to 0% and less than 25%)”. For the same compound, the “MAGL % inh. 5 mg/kg (mouse)” value in assay [6] is “D (% inhibition is greater than or equal to 0% and less than 25%)”.

With `C[C@@H](c1ccc(Cl)c(N2CCC(F)CC2)c1)N1CCN(C(=O)n2ccc(NS(C)(=O)=O)n2)CC1` [Example 11, (S)—N-(1-(4-(1-(4-chloro-3-(4-fluoropiperidin-1-yl)phenyl)ethyl)piperazine-1-carbonyl)-1H-pyrazol-3-yl)methanesulfonamide], the inhibition at 1 µM is 0 to 25% in assay [1], > 75% in assay [2], 0 to 25% in assay [3] and > 75% in assay [4]. Further, the IC50 in assay [1] was 1 to 10 µM; in assay [2], < 0.1 µM. For the same compound, the “FAAH % inh. 5 mg/kg (mouse)” value in assay [5] is “D (% inhibition is greater than or equal to 0% and less than 25%)”. Also, in assay [6], the “MAGL % inh. 5 mg/kg (mouse)” value was “C (% inhibition is greater than or equal to 25% and less than 50%)”.

Regarding `CS(=O)(=O)Nc1ccn(C(=O)N2CCN(Cc3ccc(Cl)c(N4CCCC45CC5)c3)CC2)n1` [Example 12, N-(1-(4-(4-chloro-3-(4-azaspiro[2.4]heptan-4-yl)benzyl)piperazine-1-carbonyl)-1H-pyrazol-3-yl)methanesulfonamide], the inhibition at 1 µM in assay [1] was 0 to 25%; in assay [2], > 75%; in assay [3], 0 to 25%; in assay [4], > 75%. In assay [5], the “FAAH % inh. 5 mg/kg (mouse)” value was “D (% inhibition is greater than or equal to 0% and less than 25%)”. The “MAGL % inh. 5 mg/kg (mouse)” value in assay [6] was “D (% inhibition is greater than or equal to 0% and less than 25%)”.

As for `CC(=O)Nc1ccn(C(=O)N2CCC3(CCCN3Cc3cc4cc(C(N)=O)ccc4[nH]3)CC2)n1` [Example 14, 2-((8-(3-acetamido-1H-pyrazole-1-carbonyl)-1,8-diazaspiro[4.5]decan-1-yl)methyl)-1H-indole-5-carboxamide], the inhibition at 1 µM in assay [1] is 0 to 25%; in assay [2], > 75%; in assay [3] it was 0 to 25%; in assay [4], 50 to 75%. Besides, the figures for the 50% inhibitory concentration (IC50) in assay [1] and in assay [2] were 1 to 10 µM and < 0.1 µM, respectively. Moreover, the “FAAH % inh. 5 mg/kg (mouse)” value in assay [5] is “D (% inhibition is greater than or equal to 0% and less than 25%)”. Moreover, the “MAGL % inh. 5 mg/kg (mouse)” value in assay [6] was “D (% inhibition is greater than or equal to 0% and less than 25%)”.

With `CC(=O)Nc1ccn(C(=O)N2CC3CN(Cc4cc(N5CCOCC5)cc(C(F)(F)F)c4)CC3C2)n1` (stereo not shown) [Example 166, N-(1-(5-(3-Morpholino-5-(trifluoromethyl)benzyl)octahydropyrrolo[3,4-c]pyrrole-2-carbonyl)-1H-pyrazol-3-yl)acetamide], the inhibition at 1 µM in assay [1] is 0 to 25%; in assay [2], > 75%; in assay [3], > 75%; in assay [4] it was > 75%.

In the case of `CC(=O)Nc1ccn(C(=O)N2CC3CN(Cc4cc(Cl)cc(N5CCOCC5)c4)CC3C2)n1` (stereo not shown) [Example 167, N-(1-(5-(3-Chloro-5-morpholinobenzyl)octahydropyrrolo[3,4-c]pyrrole-2-carbonyl)-1H-pyrazol-3-yl)acetamide], the inhibition at 1 µM in assay [1] is 25 to 50%; in assay [2], > 75%; in assay [3] it was > 75%; in assay [4], > 75%.

As for `CC(=O)Nc1ccn(C(=O)N2CC3CN(Cc4cc(Cl)cc(N5CCCC5)c4)CC3C2)n1` (stereo not shown) [Example 172, N-(1-(5-(3-Chloro-5-(pyrrolidin-1-yl)benzyl)octahydropyrrolo[3,4-c]pyrrole-2-carbonyl)-1H-pyrazol-3-yl)acetamide], the results for the IC50 in assay [1] and in assay [2] were 0.1 to 1 µM and < 0.1 µM, respectively. The inhibition at 1 µM in assay [3] and in assay [4] was > 75% each time.

Consider `CC(=O)Nc1ccn(C(=O)N2CC3CN(Cc4cccc(Oc5ccccc5)c4)CC3C2)n1` (stereo not shown) [Example 173, N-(1-(5-(3-Phenoxybenzyl)octahydropyrrolo[3,4-c]pyrrole-2-carbonyl)-1H-pyrazol-3-yl)acetamide], for which the IC50 was 0.1 to 1 µM in assay [1] and < 0.1 µM in assay [2]. Also, the inhibition at 1 µM in assay [3] and in assay [4] was > 75% each time.

Regarding `CC(=O)Nc1ccn(C(=O)N2CCC3(CCN(Cc4cc(F)cc(Cl)c4)C3)CC2)n1` [Example 176, N-(1-(2-(3-Chloro-5-fluorobenzyl)-2,8-diazaspiro[4.5]decane-8-carbonyl)-1H-pyrazol-3-yl)acetamide], in assay [2], the inhibition at 1 µM was > 75% and the IC50 is < 0.1 µM. For the same compound, the inhibition at 1 µM in assay [4] is > 75%. Further, in assay [6], the “MAGL % inh. 5 mg/kg (mouse)” value is given as “A (% inhibition is greater than or equal to 75%)”.

In the case of `C[C@@H]1CN(C(=O)n2ccc(NS(C)(=O)=O)n2)CCN1Cc1ccc(C(F)(F)F)c(N2CC3COCC3C2)c1` (stereo partly drawn) [Example 182, N-(1-((3R)-3-Methyl-4-(3-(tetrahydro-1H-furo[3,4-c]pyrrol-5(3H)-yl)-4-(trifluoromethyl)benzyl)piperazine-1-carbonyl)-1H-pyrazol-3-yl)methanesulfonamide], in assay [2], the inhibition at 1 µM is > 75% and the IC50 was < 0.1 µM. Besides, the inhibition at 1 µM in assay [4] is > 75%. Further, in assay [6], the “MAGL % inh. 5 mg/kg (mouse)” value is “D (% inhibition is greater than or equal to 0% and less than 25%)”.

Consider `C[C@H]1CN(C(=O)n2ccc(NS(C)(=O)=O)n2)CCN1Cc1ccc(C(F)(F)F)c(N2CCC(C(F)(F)F)CC2)c1` [Example 185, (S)-N-(1-(3-Methyl-4-(4-(trifluoromethyl)-3-(4-(trifluoromethyl)piperidin-1-yl)benzyl)piperazine-1-carbonyl)-1H-pyrazol-3-yl)methanesulfonamide], for which the inhibition at 1 µM in assay [2] and in assay [4] was > 75% in each case. In assay [6], the “MAGL % inh. 5 mg/kg (mouse)” value was “A (% inhibition is greater than or equal to 75%)”.

With `C[C@H]1CN(C(=O)n2ccc(NS(C)(=O)=O)n2)CCN1Cc1ccc(Cl)c(N2CCC(F)(F)CC2)c1` [Example 186, (S)-N-(1-(4-(4-Chloro-3-(4,4-difluoropiperidin-1-yl)benzyl)-3-methylpiperazine-1-carbonyl)-1H-pyrazol-3-yl)methanesulfonamide], the inhibition at 1 µM in assay [2] and in assay [4] was > 75% each time. Besides, in assay [6], the “MAGL % inh. 5 mg/kg (mouse)” value was “A (% inhibition is greater than or equal to 75%)”.

As to `C[C@H]1CN(C(=O)n2ccc(NS(C)(=O)=O)n2)CCN1Cc1ccc(Cl)c(N2CCC(C(F)(F)F)CC2)c1` [Example 188, (S)-N-(1-(4-(4-Chloro-3-(4-(trifluoromethyl)piperidin-1-yl)benzyl)-3-methylpiperazine-1-carbonyl)-1H-pyrazol-3-yl)methanesulfonamide], the inhibition at 1 µM in assay [2] and in assay [4] was > 75% throughout. Besides, the “MAGL % inh. 5 mg/kg (mouse)” value in assay [6] is “A (% inhibition is greater than or equal to 75%)”.

Take `C[C@H]1CN(C(=O)n2ccc(NS(C)(=O)=O)n2)CCN1Cc1ccc(Cl)c(N2CC[C@H](F)C2)c1` [Example 189, N-(1-((S)-4-(4-Chloro-3-((S)-3-fluoropyrrolidin-1-yl)benzyl)-3-methylpiperazine-1-carbonyl)-1H-pyrazol-3-yl)methanesulfonamide]: the inhibition at 1 µM in assay [2] and in assay [4] was > 75% throughout. In addition, in assay [6], the “MAGL % inh. 5 mg/kg (mouse)” value is “A (% inhibition is greater than or equal to 75%)”.

In the case of `CC(C)N1CCN(c2cc(CN3CCN(C(=O)n4ccc(NS(C)(=O)=O)n4)C[C@@H]3C)ccc2Cl)CC1=O` [Example 190, (S)-N-(1-(4-(4-Chloro-3-(4-isopropyl-3-oxopiperazin-1-yl)benzyl)-3-methylpiperazine-1-carbonyl)-1H-pyrazol-3-yl)methanesulfonamide], the inhibition at 1 µM in assay [2] and in assay [4] was > 75% each time. For the same compound, the “MAGL % inh. 5 mg/kg (mouse)” value in assay [6] is “D (% inhibition is greater than or equal to 0% and less than 25%)”.

As for `CN(Cc1ccc(Cl)cc1N1CC2COCC2C1)C1(C)CCN(C(=O)n2ccc(NS(C)(=O)=O)n2)CC1` (stereo not shown) [Example 197, N-(1-(4-((4-Chloro-2-(tetrahydro-1H-furo[3,4-c]pyrrol-5(3H)-yl)benzyl)(methyl)amino)-4-methylpiperidine-1-carbonyl)-1H-pyrazol-3-yl)methanesulfonamide], the inhibition at 1 µM in assay [2] and in assay [4] was > 75% in each case. In assay [6], the “MAGL % inh. 5 mg/kg (mouse)” value was “D (% inhibition is greater than or equal to 0% and less than 25%)”.
